# ChEMBL document CHEMBL1629569, “Widespread dissemination of aminoglycoside resistance genes armA and rmtB in Klebsiella pneumoniae isolates in Taiwan producing CTX-M-type extended-spectrum beta-lactamases” (2009)
# Legend:
# Type in all cases: functional
# [1] = tested on: Klebsiella pneumoniae; assay: Antimicrobial activity against ESBL-producing Klebsiella pneumoniae clinical isolate by broth microdilution method
# [2] = tested on: Klebsiella pneumoniae; assay: Antimicrobial activity against ESBL-producing Klebsiella pneumoniae clinical isolate assessed as susceptible isolates
# [3] = tested on: Klebsiella pneumoniae; assay: Antimicrobial activity against ESBL-producing Klebsiella pneumoniae clinical isolate assessed as resistant isolates
Compound,MIC50 [1] [µg/mL],MIC90 [1] [µg/mL],Activity [2],Activity [3] [isolates]
NCC[C@H](O)C(=O)N[C@@H]1C[C@H](N)[C@@H](O[C@H]2O[C@H](CN)[C@@H](O)[C@H](O)[C@H]2O)[C@H](O)[C@H]1O[C@H]1O[C@H](CO)[C@@H](O)[C@H](N)[C@H]1O [AMIKACIN],32,64,106 isolates,102
CC1(C)S[C@@H]2[C@H](NC(=O)[C@H](N)c3ccccc3)C(=O)N2[C@H]1C(=O)O [AMPICILLIN],> 64,> 64,0 isolates,235
CO/N=C(\C(=O)N[C@@H]1C(=O)N2C(C(=O)O)=C(COC(C)=O)CS[C@H]12)c1csc(N)n1 [CEFOTAXIME],64,64,12 isolates,146
CO[C@@]1(NC(=O)Cc2cccs2)C(=O)N2C(C(=O)O)=C(COC(N)=O)CS[C@@H]21 [CEFOXITIN],16,32,102 isolates,95
CC(C)(O/N=C(\C(=O)N[C@@H]1C(=O)N2C(C(=O)[O-])=C(C[n+]3ccccc3)CS[C@H]12)c1csc(N)n1)C(=O)O [CEFTAZIDIME],32,32,38 isolates,158
C[C@@H](O)[C@H]1C(=O)N2C(C(=O)O)=C(SCCNC=N)C[C@H]12 [IMIPENEM ANHYDROUS],0.25,2,230 isolates,2
GENTAMICIN,16,16,21%,–
